{
  "source": "patent US20170165317A1",
  "about": "“METHOD FOR MITIGATING OR ALLEVIATING SYNAPTIC AND COGNITIVE DEFICITS” (Trustees of Dartmouth College, priority 2013, published 2017)",
  "key": {"CA1 hippocampal region": {"tested_on": "CA1 hippocampal region", "assay": "LTP of fEPSPs in CA1 of acute hippocampal slices exposed to protofibrillar Aβ42", "type": "cell-based, mice", "conditions": "50 nM VO-OHpic 1 hour before addition of 1 μM Aβ42", "description": "(§1) Mice were anesthetized with sodium pentothal (20 mg/kg ip) and decapitated. The brain was rapidly removed to ice-cold, oxygenated, dissection solution. Coronal slices (300 μm) were made with a vibratome (LEICA VT1200S) and slices were moved to a recovery chamber containing aCSF at room temperature for at least 1.5 hour before recording.\nA concentric bipolar platinum-iridium stimulation electrode and a low-resistance glass recording microelectrode filled with aCSF (3-4 MΩ resistance) were placed in CA1 stratum radiatum to record the extracellular field excitatory postsynaptic potentials (fEPSPs). For each slice, an input-output curve was recorded to compare basal synaptic transmission at different conditions. This curve was also used to set the baseline fEPSP at ≈30% (for LTP experiments) or ≈50% (for LTD experiments) of maximal slope. Baseline stimulation was delivered every 15 seconds (0.01 ms duration pulses) for at least 20 minutes before beginning the experiment to ensure stability of the response. LTP was induced by using θ-burst stimulation (4 pulses at 100 Hz, with the bursts repeated at 5 Hz and each tetanus including three 10-burst trains separated by 15 seconds). LTD was induced using 900 pulses at 1 Hz. Responses were recorded for 1 hour after induction of LTP or LTD. […]"}, "[1]": {"tested_on": "hippocampal CA3 and CA1 cells from acute slices", "assay": "fEPSP input-output curve (basal synaptic transmission) in acute hippocampal slices exposed to protofibrillar Aβ42", "type": "cell-based, mice", "description": "as §1\nA concentric bipolar platinum-iridium stimulation electrode and a low-resistance glass recording microelectrode filled with aCSF (3-4 MΩ resistance) were placed in CA1 stratum radiatum to record the extracellular field excitatory postsynaptic potentials (fEPSPs). For each slice, an input-output curve was recorded to compare basal synaptic transmission at different conditions. This curve was also used to set the baseline fEPSP at ≈30% (for LTP experiments) or ≈50% (for LTD experiments) of maximal slope. Baseline stimulation was delivered every 15 seconds (0.01 ms duration pulses) for at least 20 minutes before beginning the experiment to ensure stability of the response. LTP was induced by using θ-burst stimulation (4 pulses at 100 Hz, with the bursts repeated at 5 Hz and each tetanus including three 10-burst trains separated by 15 seconds). LTD was induced using 900 pulses at 1 Hz. Responses were recorded for 1 hour after induction of LTP or LTD.\nDissection solution (employed for slicing) composition: 10 mM D-glucose, 4 mM KCl, 26 mM NaHCO3, 233.7 mM sucrose, 5 mM MgCl2, 1:1000 Phenol Red. Artificial CSF (employed for recovery and recording) composition: 119 mM NaCl, 2.5 mM KCl, 1 mM NaH2PO4, 11 mM glucose, 1.2 mM MgCl2, 2.5 mM CaCl2. Osmolarity was adjusted to […].\nFor the first approach, protofibrillar Aβ was prepared by promoting aggregation under high-salt conditions (258 μM Aβ42, room temperature incubation (Jan, et al. (2010) Nat. Protoc. 5:1186-1209). The kinetics of Aβ42 aggregation were followed by thioflavin T fluorescence and SDS-PAGE western blot analysis with the N-terminal anti-Aβ antibody 6E10. Also, the heterogeneous nature of these Aβ42 assemblies was evidenced by electron microscopy. Synaptic function was assessed by electrophysiological recordings of field excitatory postsynaptic potential (fEPSPs) between hippocampal CA3 and CA1 cells from acute slices prepared from 5-month-old mice. The results indicated a ≈60% decrease in the magnitude of synaptic transmission (input-output curve) when slices were incubated for 2 hours in aCSF containing pathogenic protofibrillar Aβ42 species (1 μM). This decrease in the basal synaptic transmission was prevented when Aβ was added to slices that were preincubated with the PTEN inhibitor (50 nM VO-OHpic) for 1 hour (VO-OHpic and Aβ were also present in the perfusion solution during electrophysiological recordings). VO-OHpic alone had no effect on basal synaptic transmission. […] The potency and specificity of this inhibitor have been documented previously (Rosivatz, et al. (2006) ACS Chem. Biol. 1:780-790).\nThe effect of these peptides on Aβ-treated neurons was subsequently tested."}, "APP/PS1 mice": {"tested_on": "APP/PS1 mice", "assay": "Contextual fear conditioning after i.c.v. infusion", "type": "in vivo, mouse", "conditions": "VO-OHpic infusion", "description": "APP/PS1 and wild-type mice were anesthetized with isofluorane, and i.c.v. delivery cannulas (brain alzet kit III) were implanted with a stereotaxic frame (KOPF Instruments) at the following coordinates according to the bregma: AP, −0.5 mm; ML, 1 mm; and DV, −2.2 mm. Osmotic minipumps (Alzet) were filled with artificial cerebrospinal fluid (aCSF) with or without PTEN inhibitor VO-OHpic (2.5 μM) and equilibrated in 0.9% NaCl at 37° C. for 48 hours. They were attached to the i.c.v. cannula tubing and subcutaneously implanted at the back. After 21 days, behavioral testing was started as described herein. […]\nFear conditioning. […] The animals' behavior was scored by an observer blind to the treatment condition. Using a time-sampling procedure every 2 seconds, each mouse was scored blindly as either freezing or active at the instant the sample was taken. […]\nIt was posited that if early Aβ-induced cognitive impairment results from a general synaptic bias toward LTD events (Selkoe (2002) Science 298:789-791), dampening this form of synaptic plasticity might prevent cognitive decay. Therefore, it was determined whether in vivo inhibition of PTEN, a lipid phosphatase that is involved in LTD (Jurado, et al. (2010) EMBO J. 29:2827-2840), would rescue cognitive deficits in APP/PS1 mice. […]"}},
  "data": [
    {"smiles": "O=C(O)c1ncccc1O.O=C(O)c1ncccc1O.[O]=[V][O-]", "note": "[VO-OHpic]", "values": [
      {"measurement": "LTP expression in presence of Aβ42", "setting": "CA1 hippocampal region", "value": "rescued the expression of LTP"},
      {"measurement": "Aβ42-induced decrease in basal synaptic transmission", "setting": "[1]; 50 nM VO-OHpic preincubated 1 hour, then 1 μM protofibrillar Aβ42 for 2 hours", "value": "prevented"},
      {"measurement": "basal synaptic transmission, inhibitor alone", "setting": "[1]; VO-OHpic alone, no Aβ", "value": "no effect"},
      {"measurement": "contextual fear conditioning performance (percentage freezing to the context)", "setting": "APP/PS1 mice; APP/PS1 mice, P=0.002", "value": "significantly improved their performance"},
      {"measurement": "contextual fear conditioning performance (percentage freezing to the context)", "setting": "APP/PS1 mice; wild-type mice", "value": "without altering"}
    ]}
  ]
}
